Structures are written as SMILES.

This is an account of results in ChEMBL document CHEMBL1132443, “Antimalarial, antiproliferative, and antitumor activities of artemisinin-derived, chemically robust, trioxane dimers” (J Med Chem, 1999).

For this assay, the system named is Plasmodium falciparum. The assay is described as follows: In vitro antimalarial activity against chloroquine-sensitive Plasmodium falciparum NF54. The class given is functional, organism-based.

On to `C[C@H]1[C@@H](C#Cc2cccc(C#C[C@H]3O[C@@H]4O[C@]5(C)CC[C@H]6[C@H](C)CC[C@@H]([C@H]3C)[C@@]46OO5)c2)O[C@@H]2O[C@]3(C)CC[C@H]4[C@H](C)CC[C@@H]1[C@@]24OO3`, for which it took 36 nM to reach half-maximal inhibition (IC50).

As to `C[C@H]1[C@@H](CC(=O)c2ccc(C(=O)C[C@H]3O[C@@H]4O[C@]5(C)CC[C@H]6[C@H](C)CC[C@@H]([C@H]3C)[C@@]46OO5)cc2)O[C@@H]2O[C@]3(C)CC[C@H]4[C@H](C)CC[C@@H]1[C@@]24OO3`, the midpoint of inhibition, the IC50, lay at 1.9 nM.

`C[C@H]1[C@@H](CC(=O)c2cccc(C(=O)C[C@H]3O[C@@H]4C[C@]5(C)CC[C@H]6[C@H](C)CC[C@@H]([C@H]3C)[C@@]46OO5)c2)O[C@@H]2C[C@]3(C)CC[C@H]4[C@H](C)CC[C@@H]1[C@@]24OO3`: the IC50 was 1.9 nM.

In turn, `C[C@H]1[C@H](c2ccc([C@@H]3O[C@@H]4O[C@]5(C)CC[C@H]6[C@H](C)CC[C@@H]([C@H]3C)[C@@]46OO5)o2)O[C@@H]2O[C@]3(C)CC[C@H]4[C@H](C)CC[C@@H]1[C@@]24OO3` gave an IC50 of 3.2 nM.

On to `C[C@H]1[C@@H](C#Cc2ccc(C#C[C@H]3O[C@@H]4O[C@]5(C)CC[C@H]6[C@H](C)CC[C@@H]([C@H]3C)[C@@]46OO5)cc2)O[C@@H]2O[C@]3(C)CC[C@H]4[C@H](C)CC[C@@H]1[C@@]24OO3`, for which half-maximal inhibition (IC50) was put at 30 nM.

Turning to `COc1cc(OC)c([C@@H]2O[C@@H]3O[C@]4(C)CC[C@H]5[C@H](C)CC[C@@H]([C@H]2C)[C@@]35OO4)cc1[C@@H]1O[C@@H]2O[C@]3(C)CC[C@H]4[C@H](C)CC[C@@H]([C@H]1C)[C@@]24OO3`, the midpoint of inhibition, the IC50, lay at 1.3 nM.

With `C[C@@H]1CC[C@H]2[C@@H](C)C(=O)O[C@@H]3O[C@@]4(C)CC[C@@H]1[C@]32OO4` [ARTEMISININ], the IC50 was 9.7 nM.

By IC50 is commonly meant the concentration that gives 50% inhibition. Read a low IC50 as greater potency in that assay.
